Laboratory results published in PubChem BioAssay AID248 (DTP/NCI, 2004).
“And” between values parts separate entries of the source, which are not always exact repeats. Equal entries are not always repeated. Inconclusive results and toxic doses are left out.

System: L1210 leukemia ip in BDF1 mice, survival T/C
Assay: NCI In Vivo Anticancer Drug Screen. Data for tumor model L1210 Leukemia (intraperitoneal) in B6D2F1 (BDF1) mice
Conditions: endpoint: mean survival time, higher = longer survival
Method in brief: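 Value reflects the ratio of survival in compound-treated mice to survival in vehicle-treated controls, with both groups carrying the same transplanted tumor.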

[1] = dose: 100.0 mg/kg/injection, schedule: Q01DX009 (ip), vehicle: Klucel (hydroxypropylcellulose) (HPC)
[2] = dose: 100.0 mg/kg/injection, schedule: Q04DX003 (ip), vehicle: Klucel (hydroxypropylcellulose) (HPC)
[3] = dose: 200.0 mg/kg/injection, schedule: Q01DX009 (ip), vehicle: Klucel (hydroxypropylcellulose) (HPC)
[4] = dose: 200.0 mg/kg/injection, schedule: Q04DX003 (ip), vehicle: Klucel (hydroxypropylcellulose) (HPC)
[5] = dose: 400.0 mg/kg/injection, schedule: Q04DX003 (ip), vehicle: Klucel (hydroxypropylcellulose) (HPC)

In the case of `c1ccc(C2=C(c3ccccc3)C(c3ccccc3)=C(c3ccccc3)CC2)cc1`, the T/C (dose: 100.0 mg/kg/injection, schedule: Q01DX001 (ip), vehicle: saline with Tween-80) is reported as 89 % of control, the T/C (dose: 200.0 mg/kg/injection, schedule: Q01DX001 (ip), vehicle: saline with Tween-80) is reported as 89 % of control and the T/C (dose: 400.0 mg/kg/injection, schedule: Q01DX001 (ip), vehicle: saline with Tween-80) is reported as 86 % of control.

In the case of `CS(=O)(=O)OCCN(CCOS(C)(=O)=O)c1ccc(C=Nc2ccc(-c3csc(Cc4ccccc4)n3)cc2)cc1`, the T/C (dose: 20.0 mg/kg/injection, schedule: Q04DX003 (ip), vehicle: Klucel (hydroxypropylcellulose) (HPC)) is reported as 122 % of control, the T/C (dose: 30.0 mg/kg/injection, schedule: Q04DX003 (ip), vehicle: Klucel (hydroxypropylcellulose) (HPC)) is reported as 98 % of control and the T/C (dose: 66.0 mg/kg/injection, schedule: Q04DX003 (ip), vehicle: Klucel (hydroxypropylcellulose) (HPC)) is reported as 152 % of control. For the same compound, the T/C (dose: 150.0 mg/kg/injection, schedule: Q04DX003 (ip), vehicle: Klucel (hydroxypropylcellulose) (HPC)) was 107 % of control.

`CCOC(=O)c1cc(=O)c2c(ccc3cc(OC)ccc32)[nH]1` was tested, and the T/C (dose: 6.25 mg/kg/injection, schedule: Q04DX002 (ip), vehicle: carboxymethylcellulose (CMC)) was 101 % of control and 89 % of control, the T/C (dose: 12.5 mg/kg/injection, schedule: Q01DX001 (ip), vehicle: carboxymethylcellulose (CMC)) was 105 % of control and the T/C (dose: 12.5 mg/kg/injection, schedule: Q01DX009 (ip), vehicle: carboxymethylcellulose (CMC)) was 94 % of control and 105 % of control. For the same compound, the T/C (dose: 12.5 mg/kg/injection, schedule: Q04DX003 (ip), vehicle: carboxymethylcellulose (CMC)) was 100 % of control, the T/C (dose: 25.0 mg/kg/injection, schedule: Q01DX001 (ip), vehicle: carboxymethylcellulose (CMC)) was 105 % of control and the T/C (dose: 25.0 mg/kg/injection, schedule: Q01DX009 (ip), vehicle: carboxymethylcellulose (CMC)) was 97 % of control and 98 % of control. The T/C (dose: 25.0 mg/kg/injection, schedule: Q04DX003 (ip), vehicle: carboxymethylcellulose (CMC)) was 93 % of control, the T/C (dose: 50.0 mg/kg/injection, schedule: Q01DX001 (ip), vehicle: carboxymethylcellulose (CMC)) was 94 % of control and the T/C (dose: 50.0 mg/kg/injection, schedule: Q01DX009 (ip), vehicle: carboxymethylcellulose (CMC)) was 94 % of control and 88 % of control. The T/C (dose: 50.0 mg/kg/injection, schedule: Q04DX003 (ip), vehicle: carboxymethylcellulose (CMC)) was 100 % of control.

For `NC(CC1CCCCC1)C(=O)O` (configuration not stated), the T/C (dose: 100.0 mg/kg/injection, schedule: Q04DX002 (ip), vehicle: Klucel (hydroxypropylcellulose) (HPC)) was 91 % of control, the T/C (dose: 200.0 mg/kg/injection, schedule: Q04DX002 (ip), vehicle: Klucel (hydroxypropylcellulose) (HPC)) was 88 % of control and the T/C (dose: 400.0 mg/kg/injection, schedule: Q04DX002 (ip), vehicle: Klucel (hydroxypropylcellulose) (HPC)) was 91 % of control.

For `COc1ccccc1NC(=S)N1CCC(CCCC2CCN(C(=S)Nc3ccccc3OC)CC2)CC1`, the T/C [1] was 92 % of control, the T/C [2] was 91 % of control and the T/C [3] was 87 % of control. For the same compound, the T/C [4] was 89 % of control and the T/C [5] was 88 % of control.

With `O=c1[nH]cnc2nccnc12` the T/C (dose: 25.0 mg/kg/injection, schedule: Q04DX003 (ip), vehicle: saline) was 100 % of control, the T/C (dose: 50.0 mg/kg/injection, schedule: Q04DX003 (ip), vehicle: saline) was 101 % of control and the T/C (dose: 100.0 mg/kg/injection, schedule: Q04DX003 (ip), vehicle: saline) was 88 % of control. For the same compound, the T/C (dose: 200.0 mg/kg/injection, schedule: Q04DX003 (ip), vehicle: saline) was 90 % of control.

`CC1(C)OC2C(C=O)OC(n3cnc4c(N)ncnc43)C2O1` (configuration not stated) was tested, and the T/C (dose: 100.0 mg/kg/injection, schedule: Q04DX003 (ip), vehicle: alcohol) was 102 % of control, the T/C (dose: 200.0 mg/kg/injection, schedule: Q04DX003 (ip), vehicle: alcohol) was 102 % of control and the T/C (dose: 400.0 mg/kg/injection, schedule: Q04DX003 (ip), vehicle: alcohol) was 96 % of control.

In the case of `CCCCCCCCCCCCCC(=O)N(CC)CC`, the T/C (dose: 100.0 mg/kg/injection, schedule: Q01DX001 (ip), vehicle: carboxymethylcellulose (CMC)) is reported as 104 % of control, the T/C (dose: 100.0 mg/kg/injection, schedule: Q01DX009 (ip), vehicle: carboxymethylcellulose (CMC)) is reported as 95 % of control and 100 % of control and the T/C (dose: 100.0 mg/kg/injection, schedule: Q04DX003 (ip), vehicle: carboxymethylcellulose (CMC)) is reported as 98 % of control. For the same compound, the T/C (dose: 200.0 mg/kg/injection, schedule: Q01DX001 (ip), vehicle: carboxymethylcellulose (CMC)) was 94 % of control, the T/C (dose: 200.0 mg/kg/injection, schedule: Q01DX009 (ip), vehicle: carboxymethylcellulose (CMC)) was 101 % of control and 107 % of control and the T/C (dose: 200.0 mg/kg/injection, schedule: Q04DX003 (ip), vehicle: carboxymethylcellulose (CMC)) was 92 % of control. The T/C (dose: 400.0 mg/kg/injection, schedule: Q01DX001 (ip), vehicle: carboxymethylcellulose (CMC)) was 96 % of control and the T/C (dose: 400.0 mg/kg/injection, schedule: Q04DX003 (ip), vehicle: carboxymethylcellulose (CMC)) was 103 % of control.

For `CCOC(=O)c1nnc(CC)[nH]c1=O`, the T/C (dose: 100.0 mg/kg/injection, schedule: Q01DX001 (ip), vehicle: Klucel (hydroxypropylcellulose) (HPC)) was 106 % of control, the T/C (dose: 200.0 mg/kg/injection, schedule: Q01DX001 (ip), vehicle: Klucel (hydroxypropylcellulose) (HPC)) was 111 % of control and the T/C (dose: 400.0 mg/kg/injection, schedule: Q01DX001 (ip), vehicle: Klucel (hydroxypropylcellulose) (HPC)) was 90 % of control.

With `CS/C(N)=N\C(=O)N(C)C` the T/C (dose: 100.0 mg/kg/injection, schedule: Q04DX003 (ip), vehicle: saline with Tween-80) was 97 % of control, the T/C (dose: 200.0 mg/kg/injection, schedule: Q04DX003 (ip), vehicle: saline with Tween-80) was 98 % of control and the T/C (dose: 400.0 mg/kg/injection, schedule: Q04DX003 (ip), vehicle: saline with Tween-80) was 101 % of control.

With `CCSc1ncc(C(N)=O)c(N)n1` the T/C [2] was 97 % of control, the T/C [4] was 100 % of control and the T/C [5] was 92 % of control.

`CCC(C)(C(=O)OCCOCCCl)c1cccc2ccccc12` (configuration not stated) was tested, and the T/C (dose: 100.0 mg/kg/injection, schedule: Q04DX002 (ip), vehicle: saline with Tween-80) was 95 % of control, the T/C (dose: 200.0 mg/kg/injection, schedule: Q04DX002 (ip), vehicle: saline with Tween-80) was 104 % of control and the T/C (dose: 400.0 mg/kg/injection, schedule: Q04DX002 (ip), vehicle: saline with Tween-80) was 101 % of control.

In the case of `C=C(C)COc1c(C)c(C)c(OCC(=C)C)c(C)c1C`, the T/C (dose: 100.0 mg/kg/injection, schedule: Q01DX001 (ip), vehicle: DMSO) is reported as 89 % of control and the T/C (dose: 400.0 mg/kg/injection, schedule: Q01DX001 (ip), vehicle: DMSO) is reported as 94 % of control.

With `CC(/C=C(\C)N1CCCC1)=[N+]1CCCC1` the T/C (dose: 0.78 mg/kg/injection, schedule: Q01DX009 (ip), vehicle: saline) was 101 % of control, the T/C (dose: 1.56 mg/kg/injection, schedule: Q01DX009 (ip), vehicle: saline) was 101 % of control and the T/C (dose: 1.56 mg/kg/injection, schedule: Q04DX003 (ip), vehicle: saline) was 94 % of control and 108 % of control. For the same compound, the T/C (dose: 3.12 mg/kg/injection, schedule: Q04DX003 (ip), vehicle: saline) was 112 % of control and 89 % of control and the T/C (dose: 6.25 mg/kg/injection, schedule: Q04DX003 (ip), vehicle: saline) was 110 % of control.

`Cc1ccc(S(=O)(=O)OCC2C(c3ccccc3)CCC(c3ccccc3)C2COS(=O)(=O)c2ccc(C)cc2)cc1` (configuration not stated) was tested, and the T/C [1] was 90 % of control, the T/C [2] was 103 % of control and the T/C [3] was 94 % of control. For the same compound, the T/C [4] was 105 % of control and the T/C [5] was 100 % of control.

For `Nc1nc(N)c(-c2ccc(Cl)cc2)c(COc2cccc([N+](=O)[O-])c2)n1`, the T/C (dose: 75.0 mg/kg/injection, schedule: Q01DX001 (ip), vehicle: carboxymethylcellulose (CMC)) was 89 % of control, the T/C (dose: 150.0 mg/kg/injection, schedule: Q01DX001 (ip), vehicle: carboxymethylcellulose (CMC)) was 92 % of control and the T/C (dose: 300.0 mg/kg/injection, schedule: Q01DX001 (ip), vehicle: carboxymethylcellulose (CMC)) was 93 % of control.

For `OC1CCN2CCCc3cccc1c32` (configuration not stated), the T/C (dose: 12.5 mg/kg/injection, schedule: Q01DX009 (ip), vehicle: DMSO) was 93 % of control, the T/C (dose: 12.5 mg/kg/injection, schedule: Q04DX003 (ip), vehicle: DMSO) was 94 % of control and the T/C (dose: 25.0 mg/kg/injection, schedule: Q01DX009 (ip), vehicle: DMSO) was 94 % of control. The T/C (dose: 25.0 mg/kg/injection, schedule: Q04DX003 (ip), vehicle: DMSO) was 95 % of control, the T/C (dose: 50.0 mg/kg/injection, schedule: Q01DX009 (ip), vehicle: DMSO) was 90 % of control and the T/C (dose: 50.0 mg/kg/injection, schedule: Q04DX003 (ip), vehicle: DMSO) was 105 % of control.

For `CC1OC=CC(O)C1O` (configuration not stated), the T/C (dose: 50.0 mg/kg/injection, schedule: Q01DX001 (ip), vehicle: saline) was 94 % of control, the T/C (dose: 100.0 mg/kg/injection, schedule: Q01DX001 (ip), vehicle: saline) was 100 % of control and the T/C (dose: 200.0 mg/kg/injection, schedule: Q01DX001 (ip), vehicle: saline) was 105 % of control. For the same compound, the T/C (dose: 400.0 mg/kg/injection, schedule: Q01DX001 (ip), vehicle: saline) was 97 % of control.
